US20180263985A1, “MODULATORS OF TOLL-LIKE RECEPTORS FOR THE TREATMENT OF HIV” (Gilead Sciences, Inc., priority 2015, published 2018)

Key:
[1] = test system: CD4+ T Cells; experiment: Immune cell activation in PBMC cultures, flow cytometry: CD4+ T cells; type: cell-based, human; conditions: 2 days, N = 6
Description: (§1) TLR8 is expressed on multiple immune cell subsets. To determine how treatment with a TLR8 modulating compound affects activation of distinct cell populations, PBMCs were purified from HIV-1 infected subjects on cART, as described in Example 121 (anonymized participant IDs 184, 185, 188, 189, 190, and 191). […] After incubation, PBMCs were harvested and stained with antibodies conjugated to specific fluorophores (BD Biosciences) to delineate immune cell subsets: CD4 T cells (CD3+CD4+CD8−), CD8 T cells (CD3+CD8+CD4−), NK cells (CD3−CD56+CD16+), monocytes (CD3−CD14+), B cells (CD3−CD19+), and peripheral dendritic cells (DCs), defined as positive for HLA-DR and negative for a panel of markers: CD3, CD14, CD16, CD19, CD20, CD56 (Lin-1 lineage panel, BD Biosciences).
(§2) Additional markers of activation, maturation, and effector function were included for cell subsets, as follows: CD4 and CD8 T cells (CD25, CD38, CD69, IFN-γ, granzyme B, perforin, TNF-α), NK cells (CD25, CD69, IFN-γ), monocytes (CD11c, CD16, CD80, CD86, CD163, TNF-α), B cells (CD40, CD69, CD80, CD86), and DC (CD11c, CD69, CD80, CD86, CD123, and CD163). Cells were stained for surface markers (CD3, CD4, CD8, CD11c, CD14, CD16, CD25, CD69, CD80, CD86, CD163), washed, treated with fixation and permeabilization buffer (eBioscience), and stained for intracellular markers (IFN-γ, granzyme B, perforin, TNF-α). Cells were evaluated by flow cytometry on a LSR Fortessa (BD Biosciences), and data was analyzed with FlowJo software (TreeStar).
(§3) Data are expressed as geometric mean percentage (%) and as geometric mean fold-activation (Fold) for each marker and for each PBMC subset obtained from 4 or 6 subjects, as indicated. Fold activation is calculated as a ratio of the % positive for each marker for each PBMC subset at the indicated concentration of the compound of Example 15 relative to % positive for DMSO treated samples. Fold activations that are 1.5 are in bold.

[2] = test system: DCs; experiment: Immune cell activation in PBMC cultures, flow cytometry: DCs; type: cell-based, human; conditions: for DCs CD80 Fold / DCs CD69 Fold: 2 days, N = 4
Description: as §1, §2, §3

Structure (SMILES): CCCC[C@H](CO)Nc1nc(N)nc2cccnc12 [Example 15]
- CD4+ T Cells CD25 Fold ([1]; 10 nM vs DMSO): 0.6 fold
- CD4+ T Cells CD69 Fold ([1]; 10 nM vs DMSO): 0.7 fold
- CD4+ T Cells Perforin Fold ([1]; 10 nM vs DMSO): 1.5 fold
- CD4+ T Cells CD25 % ([1]; 10 nM): 1.5%
- CD4+ T Cells CD69 % ([1]; 10 nM): 5.7%
- CD4+ T Cells CD25 Fold ([1]; 100 nM vs DMSO): 1.7 fold
- CD4+ T Cells CD69 Fold ([1]; 100 nM vs DMSO): 1.0 fold
- CD4+ T Cells Perforin Fold ([1]; 100 nM vs DMSO): 1.3 fold
- CD4+ T Cells CD25 % ([1]; 100 nM): 3.9%
- CD4+ T Cells CD69 % ([1]; 100 nM): 7.7%
- CD4+ T Cells CD25 Fold ([1]; 1000 nM vs DMSO): 1.8 fold
- CD4+ T Cells CD69 Fold ([1]; 1000 nM vs DMSO): 1.5 fold
- CD4+ T Cells Perforin Fold ([1]; 1000 nM vs DMSO): 1.8 fold
- CD4+ T Cells CD25 % ([1]; 1000 nM): 4.2%
- CD4+ T Cells CD25 Fold ([1]; 3000 nM vs DMSO): 1.3 fold
- CD4+ T Cells CD69 Fold ([1]; 3000 nM vs DMSO): 1.7 fold
- CD4+ T Cells Perforin Fold ([1]; 3000 nM vs DMSO): 2.1 fold
- CD4+ T Cells CD25 % ([1]; 3000 nM): 3.0%
- CD4+ T Cells Perforin % ([1]; 3000 nM): 17.0%
- DCs CD80 Fold ([2]; 10 nM vs DMSO): 1.8 fold
- DCs CD69 Fold ([2]; 100 nM vs DMSO): 0.4 fold
- DCs CD80 Fold ([2]; 100 nM vs DMSO): 2.4 fold
- DCs CD69 Fold ([2]; 1000 nM vs DMSO): 3.3 fold
- DCs CD80 Fold ([2]; 1000 nM vs DMSO): 2.9 fold
- DCs CD69 Fold ([2]; 3000 nM vs DMSO): 8.9 fold
- DCs CD80 Fold ([2]; 3000 nM vs DMSO): 2.0 fold
- Concentration of maximal activation of DCs ([2]; increased expression of CD69): 3000 nM
- Concentration of maximal activation of DCs ([2]; increased expression of CD80): 1000 nM
